Reference: patent publication US7943629B2, “Sulphimides as protein kinase inhibitors” (Bayer Schering Pharma AG, priority 2006, dated 2011)
pIC50: −log10 of the molar value. Blank lines part the entries; values can stand above or below the compound they belong to.

What was measured:
Aurora-C = target: T1, Aurora-C (Homo sapiens, UniProt Q9UQB9); assay: Aurora-C kinase assay; assay type: biochemical; conditions: 3 μM ATP, 22° C., 90 min
T1 construct: made in house; host or cells: transiently transfected HEK293 cells
T1 sequence (Q9UQB9 1-309): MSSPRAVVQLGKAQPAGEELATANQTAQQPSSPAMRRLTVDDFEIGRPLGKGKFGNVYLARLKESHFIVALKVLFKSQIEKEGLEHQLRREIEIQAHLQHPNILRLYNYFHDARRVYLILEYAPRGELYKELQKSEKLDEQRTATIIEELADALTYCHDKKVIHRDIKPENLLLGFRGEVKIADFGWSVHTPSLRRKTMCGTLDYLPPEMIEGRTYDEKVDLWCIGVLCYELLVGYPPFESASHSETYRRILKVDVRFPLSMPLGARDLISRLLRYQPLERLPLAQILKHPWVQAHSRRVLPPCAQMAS
Method: Recombinant Aurora-C protein was expressed in transiently transfected HEK293 cells and then purified. The kinase substrate used was the biotinylated peptide having the amino acid sequence biotin-FMRLRRLSTKYRT, which was purchased from Jerini AG in Berlin.
Aurora-C [5 nM in the test mixture, test volume 5 μl] was incubated in the presence of various concentrations of test substances (0 μM and 10 measurement points within the range 0.001-20 μM in duplicate) in assay buffer [25 mM HEPES pH 7.4, 0.5 mM MnCl2, 0.1 mM Na ortho-vanadate, 2.0 mM dithiothreitol, 0.05% bovine serum albumin (BSA), 0.01% Triton X-100, 3 μM adenosine trisphosphate (ATP), 0.67 nCi/μl gamma-^33P-ATP, 2.0 μM substrate peptide biotin-FMRLRRLSTKYRT, 1.0% dimethyl sulphoxide] at 22° C. for 90 min. The reaction was stopped by adding 12.5 μl of an EDTA/detection solution [16 mM EDTA, 40 mM ATP, 0.08% Triton X-100, 4 mg/ml PVT streptavidin SPA beads (from Amersham)]. After incubation for 10 minutes, the SPA beads were pelleted by centrifugation at 1000×G for 10 minutes. Measurement took place in a PerkinElmer Topcount scintillation counter. The measured data were normalized to 0% inhibition (enzyme reaction without inhibitor) and 100% inhibition (enzyme reaction in the presence of 0.1 μM staurosporine (from Sigma)). The IC50 values were determined by means of a 4-parameter fit using the company's own software.

CDK1/CycB = target: T2, CDK1/CycB (Homo sapiens, UniProt P06493); assay: CDK1/CycB kinase assay; assay type: biochemical; conditions: 0.5 μM ATP, histone IIIS, 22° C., 10 min
T2 construct: GST; purchased ProQinase GmbH, Freiburg; host or cells: baculovirus-infected insect cells (Sf9)
T2 sequence (P06493 whole entry): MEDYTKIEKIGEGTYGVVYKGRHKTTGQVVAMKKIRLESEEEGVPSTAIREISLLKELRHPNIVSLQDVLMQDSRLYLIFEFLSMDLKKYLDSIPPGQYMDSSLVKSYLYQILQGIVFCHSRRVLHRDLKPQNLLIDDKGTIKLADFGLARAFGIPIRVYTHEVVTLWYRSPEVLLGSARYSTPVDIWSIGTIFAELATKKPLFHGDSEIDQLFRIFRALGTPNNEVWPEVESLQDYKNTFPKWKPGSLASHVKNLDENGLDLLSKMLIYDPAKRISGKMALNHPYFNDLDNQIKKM
T2 sequence (P14635 whole entry partner): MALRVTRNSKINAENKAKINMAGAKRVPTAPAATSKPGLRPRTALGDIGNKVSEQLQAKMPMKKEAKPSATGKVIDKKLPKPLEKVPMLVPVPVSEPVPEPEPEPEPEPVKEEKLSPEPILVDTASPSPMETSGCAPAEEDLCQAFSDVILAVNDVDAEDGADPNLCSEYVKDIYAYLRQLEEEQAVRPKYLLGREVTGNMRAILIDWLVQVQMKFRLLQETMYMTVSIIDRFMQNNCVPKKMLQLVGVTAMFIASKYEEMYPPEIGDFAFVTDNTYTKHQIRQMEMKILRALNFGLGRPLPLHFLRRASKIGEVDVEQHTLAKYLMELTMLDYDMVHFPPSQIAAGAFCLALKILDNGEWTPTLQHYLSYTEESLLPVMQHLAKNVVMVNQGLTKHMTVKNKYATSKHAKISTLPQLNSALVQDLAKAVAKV
Method: (§1) Recombinant CDK1- and CycB-GST fusion proteins, purified from baculovirus-infected insect cells (Sf9), were purchased from ProQinase GmbH, Freiburg. The histone IIIS used as kinase substrate can be purchased from Sigma. CDK1/CycB (200 ng/measurement point) was incubated in the presence of various concentrations of test substances (0 μM, and within the range 0.01-100 μM) in assay buffer [50 mM Tris/HCl pH 8.0, 10 mM MgCl2, 0.1 mM Na ortho-vanadate, 1.0 mM dithiothreitol, 0.5 μM ATP, 10 μg/measurement point histone IIIS, 0.2 μCi/measurement point ^33P-gamma-ATP, 0.05% NP40, 1.25% dimethyl sulphoxide] at 22° C. for 10 min. The reaction was stopped by adding EDTA solution (250 mM, pH 8.0, 15 μl/measurement point).
15 μl of each reaction mixture were loaded onto P30 filter strips (from Wallac), and non-incorporated ^33P-ATP was removed by washing the filter strips three times in 0.5% strength phosphoric acid for 10 min each time. After the filter strips had been dried at 70° C. for 1 hour, the filter strips were covered with scintillator strips (MeltiLex™ A, from Wallac) and baked at 90° C. for 1 hour. The amount of incorporated ^33P (substrate phosphorylation) was determined by scintillation measurement in a gamma radiation counter (Wallac).

CDK2/CycE = target: T3, CDK2/CycE (Homo sapiens, UniProt P24941); assay: CDK2/CycE kinase assay; assay type: biochemical; conditions: 0.5 μM ATP, histone IIIS, 22° C., 10 min
T3 construct: GST; purchased ProQinase GmbH, Freiburg; host or cells: baculovirus-infected insect cells (Sf9)
Method: Recombinant CDK2- and CycE-GST fusion proteins, purified from baculovirus-infected insect cells (Sf9), were purchased from ProQinase GmbH, Freiburg. The histone IIIS used as kinase substrate was purchased from Sigma.
as §1, with “CDK2/CycE (50” for “Recombinant CDK1- and CycB-GST fusion proteins, purified from baculovirus-infected insect cells (Sf9), were purchased from ProQinase GmbH, Freiburg. The histone IIIS used as kinase substrate can be purchased from Sigma. CDK1/CycB (200”
15 μl of each reaction mixture were loaded onto P30 filter strips (from Wallac), and non-incorporated ^33P-ATP was removed by washing the filter strips three times in 0.5% strength phosphoric acid for 10 min each time.
After the filter strips had been dried at 70° C. for 1 hour, the filter strips were covered with scintillator strips (MeltiLex™ A, from Wallac) and baked at 90° C. for 1 hour. The amount of incorporated ^33P (substrate phosphorylation) was determined by scintillation measurement in a gamma radiation counter (Wallac).

KDR (VEGFR2) = target: T4, KDR (VEGFR2) (Homo sapiens, UniProt P35968); assay: KDR kinase assay; assay type: biochemical; conditions: 10 μM ATP, 22° C., 45 min, HTRF
T4 construct: made in house; host or cells: E. coli
T4 sequence (P35968 20-1356, species assumed): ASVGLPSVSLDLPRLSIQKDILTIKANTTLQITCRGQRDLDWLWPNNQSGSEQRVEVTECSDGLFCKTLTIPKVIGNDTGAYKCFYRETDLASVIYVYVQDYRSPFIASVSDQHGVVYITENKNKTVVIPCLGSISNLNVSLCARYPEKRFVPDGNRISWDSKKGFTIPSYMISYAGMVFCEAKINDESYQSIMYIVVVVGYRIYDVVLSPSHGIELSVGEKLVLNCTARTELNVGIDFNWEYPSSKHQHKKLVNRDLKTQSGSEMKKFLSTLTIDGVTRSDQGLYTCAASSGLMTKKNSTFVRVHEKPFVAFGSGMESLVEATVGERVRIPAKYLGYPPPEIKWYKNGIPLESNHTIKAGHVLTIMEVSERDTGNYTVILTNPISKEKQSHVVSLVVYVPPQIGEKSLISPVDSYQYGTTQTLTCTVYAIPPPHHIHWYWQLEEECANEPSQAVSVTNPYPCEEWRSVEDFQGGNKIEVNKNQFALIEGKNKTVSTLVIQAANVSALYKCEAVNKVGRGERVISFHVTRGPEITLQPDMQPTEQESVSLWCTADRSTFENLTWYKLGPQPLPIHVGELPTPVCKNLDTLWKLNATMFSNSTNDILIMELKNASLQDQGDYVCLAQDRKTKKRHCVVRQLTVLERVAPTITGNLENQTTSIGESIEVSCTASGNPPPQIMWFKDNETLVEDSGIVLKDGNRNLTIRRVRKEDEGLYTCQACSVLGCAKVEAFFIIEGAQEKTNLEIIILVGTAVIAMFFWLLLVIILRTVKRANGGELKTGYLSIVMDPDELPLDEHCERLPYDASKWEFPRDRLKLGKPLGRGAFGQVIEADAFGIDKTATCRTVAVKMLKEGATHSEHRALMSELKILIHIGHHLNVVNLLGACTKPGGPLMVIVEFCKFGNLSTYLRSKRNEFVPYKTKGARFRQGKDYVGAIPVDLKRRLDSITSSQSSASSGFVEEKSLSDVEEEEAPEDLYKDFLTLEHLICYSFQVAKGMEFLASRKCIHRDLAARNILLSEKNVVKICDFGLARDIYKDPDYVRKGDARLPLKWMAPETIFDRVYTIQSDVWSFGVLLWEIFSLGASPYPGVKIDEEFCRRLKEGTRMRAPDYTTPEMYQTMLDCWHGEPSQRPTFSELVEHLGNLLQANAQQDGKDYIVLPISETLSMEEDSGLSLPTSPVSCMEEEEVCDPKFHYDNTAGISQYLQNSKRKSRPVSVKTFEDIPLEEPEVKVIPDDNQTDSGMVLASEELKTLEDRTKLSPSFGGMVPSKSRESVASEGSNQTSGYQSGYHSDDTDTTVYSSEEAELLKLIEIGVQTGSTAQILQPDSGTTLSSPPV
Method: Recombinant KDR protein was expressed in E. coli and then purified. The kinase substrate used was the biotinylated peptide having the amino acid sequence biotin-DFGLARDMYDKEYYSVG, which was purchased from Biosynthan. KDR [test volume 5 μl] was incubated in the presence of various concentrations of test substances (0 μM, and 10 measurement points within the range 0.001-20 μM in duplicate) in assay buffer [50 mM HEPES pH 7.0, 25.0 mM MgCl2, […], 0.1 mM Na ortho-vanadate, 1.0 mM dithiothreitol, 0.001% NP40, 10 μM ATP, 0.03 μM substrate peptide […], 1.0% dimethyl sulphoxide] at 22° C. for 45 min. The reaction was stopped by adding 5 μl of an EDTA/detection solution [50 mM HEPES pH 7.5, 125 mM EDTA, 0.2% BSA, 0.1 μM streptavidin-XLent (from CisBio), 2 nM PT66-Eu (from PerkinElmer)]. The fluorescence emission at 620 nm and 665 nm after excitation with light of the wavelength 350 nm was measured in a Rubystar HTRF instrument from BMG Labsystems.
The measured data (ratio of emission 665 divided by emission 620 multiplied by 10 000) were normalized to 0% inhibition (enzyme reaction without inhibitor) and 100% inhibition (all assay components apart from enzyme). The IC50 values were determined by means of a 4-parameter fit using the company's own software.

MCF7 breast tumour cells = assay: MCF7 proliferation assay; assay type: cell-based, human; conditions: Homo sapiens, MCF7, 96 h; 4 days incubation, crystal violet staining
Method: Cultivated human MCF7 breast tumour cells (ATCC HTB-22) were plated out in a density of 5000 cells/measurement point in 200 μl of growth medium (RPMI1640, 10% foetal calf serum, 2 mU/mL insulin, 0.1 nM oestradiol) in a 96-well multititre plate. After 24 hours, the cells from a plate (zero plate) were stained with crystal violet (see below), while the medium in the other plates was replaced by fresh culture medium (200 μl) to which the test substances had been added in various concentrations (0 μM, and in the range 0.1-30 μM; the final concentration of the solvent dimethyl sulphoxide was 0.5%). The cells were incubated in the presence of the test substances for 4 days. The cell proliferation was determined by staining the cells with crystal violet: the cells were fixed by adding 20 μl/measurement point of an 11% strength glutaraldehyde solution at room temperature for 15 min. After the fixed cells had been washed three times with water, the plates were dried at room temperature. The cells were stained by adding 100 μl/measurement point of a 0.1% strength crystal violet solution (pH adjusted to pH 3 by adding acetic acid). After the stained cells had been washed three times with water, the plates were dried at room temperature. The dye was dissolved by adding 100 μl/measurement point of a 10% strength acetic acid solution, and the extinction was determined by photometry at a wavelength of 595 nm. The percentage change in cell growth was calculated by normalizing the measurements to the extinctions of the zero point plate (=0%) and the extinction of the untreated (0 μM) cells (=100%). The IC50 values were determined by means of a 4-parameter fit using the company's own software.

pIC50 (Aurora-C): 6.40 | pIC50 (CDK1/CycB): 7.30 | pIC50 (CDK2/CycE): 8.22 | pIC50 (KDR (VEGFR2)): 7.46 | pIC50 (MCF7 breast tumour cells): 6.77
SMILES: C[C@@H](Nc1nc(Nc2ccc(S(C)=NS(C)(=O)=O)cc2)ncc1Br)C(C)(C)O (mixture of isomers) [Example 18, (RS)—S-{4-[(5-Bromo-4-{[(R)-2-hydroxy-1,2-dimethylpropyl]amino}pyrimidin-2-yl)amino]phenyl}-N-mesyl-S-methylsulphimide]

pIC50 (Aurora-C): 6.60 | pIC50 (CDK1/CycB): 7.51 | pIC50 (CDK2/CycE): 8.00 | pIC50 (KDR (VEGFR2)): 7.46 | pIC50 (MCF7 breast tumour cells): 6.46
SMILES: CCS(=O)(=O)N=S(C)c1ccc(Nc2ncc(Br)c(N[C@H](C)C(C)(C)O)n2)cc1 (mixture of isomers) [Example 20, (RS)—S-{4-[(5-Bromo-4-{[(R)-2-hydroxy-1,2-dimethylpropyl]amino}pyrimidin-2-yl)amino]phenyl}-N-(ethylsulphonyl)-S-methylsulphimide]

pIC50 (Aurora-C): 6.62 | pIC50 (CDK1/CycB): < 6.00 | pIC50 (CDK2/CycE): 6.05 | pIC50 (KDR (VEGFR2)): 7.43 | pIC50 (MCF7 breast tumour cells): 5.66
SMILES: Cc1ccc(S(=O)(=O)N=S(C)c2ccc(Nc3ncc(Br)c(NC(C)C)n3)cc2)cc1 (racemic) [Example 1, (RS)—S-(4-{[5-Bromo-4-(isopropylamino)pyrimidin-2-yl]amino}phenyl)-S-methyl-N-(tolylsulphonyl)sulphimide]

Second part, the compound before the results:

SMILES: CC(=O)Nc1nnc(S(=O)(=O)N=S(C)c2ccc(Nc3ncc(Br)c(N[C@H](C)C(C)(C)O)n3)cc2)s1 (mixture of isomers) [Example 19, (RS)—N-{[5-(Acetylamino)-1,3,4-thiadiazol-2-yl]sulphonyl}-S-{4-[(5-bromo-4-{[(R)-2-hydroxy-1,2-dimethylpropyl]amino}pyrimidin-2-yl)amino]phenyl}-S-methyl-sulphimide]
pIC50 (Aurora-C): 5.96 | pIC50 (CDK1/CycB): 7.01 | pIC50 (CDK2/CycE): 7.60 | pIC50 (KDR (VEGFR2)): 6.49 | pIC50 (MCF7 breast tumour cells): 5.74

SMILES: CCCS(=O)(=O)N=S(C)c1ccc(Nc2ncc(Br)c(N[C@H](C)C(C)(C)O)n2)cc1 (mixture of isomers) [Example 21, (RS)—S-{4-[(5-Bromo-4-{[(R)-2-hydroxy-1,2-dimethylpropyl]amino}pyrimidin-2-yl)amino]phenyl}-S-methyl-N-(propylsulphonyl)sulphimide]
pIC50 (Aurora-C): 6.41 | pIC50 (CDK1/CycB): 7.44 | pIC50 (CDK2/CycE): 7.92 | pIC50 (KDR (VEGFR2)): 7.31 | pIC50 (MCF7 breast tumour cells): 6.51

SMILES: C[C@@H](Nc1nc(Nc2ccc(S(C)=NS(=O)(=O)C(C)(C)C)cc2)ncc1Br)C(C)(C)O (mixture of isomers) [Example 22, (RS)—S-{4-[(5-Bromo-4-{[(R)-2-hydroxy-1,2-dimethylpropyl]amino}pyrimidin-2-yl)amino]phenyl}-N-(tert-butylsulphonyl)-S-methylsulphimide]
pIC50 (Aurora-C): 6.41 | pIC50 (CDK1/CycB): 7.34 | pIC50 (CDK2/CycE): 7.66 | pIC50 (KDR (VEGFR2)): 7.36 | pIC50 (MCF7 breast tumour cells): 6.48
